Data reported in patent publication US12662451B2, “Chemical compounds and uses thereof” (GLAXOSMITHKLINE INTELLECTUAL PROPERTY (NO.4) LIMITED, priority 2023, dated 2026).
Where a name gives a salt, the structure may show the parent alone.

molecular target: T1, recombinant full-length WRN protein (1-1432) (Homo sapiens, UniProt Q14191); experiment: WRN unwinding activity, fluorogenic 384-well assay (Example A); assay type: biochemical; conditions: WRN unwinding activity, 4 hr; Table 2; read-out: 4 hr UNW pIC50 (converted)
T1 construct: recombinant full-length WRN protein (1-1432)
Protocol: Functional WRN unwinding activity can be measured using a fluorogenic plate based 384 well assay configured to measure the separation of labeled double stranded DNA substrate. Compounds were dosed out in neat DMSO with a 1:3 serial dilution scheme. 100 nL of compound was stamped into Greiner low volume black assay plates (Greiner Cat #784076) using the Echo Acoustic Dispenser to generate assay ready plates. All solutions were prepared in assay buffer (25 mM TRIS (pH8.0), 5 mM NaCl, 2 mM MgCl2, 1 mM DTT, 0.05% BSA) for this 10 μL low volume reaction. To prepare the solutions, a 2×WRN Enzyme cocktail was made containing 200 pM of recombinant full-length WRN protein (1-1432). A 2× Substrate cocktail was made to consist of both 200 μM ATP (any ultrapure ATP sample) and 12 nM of the fluorescent quenched labeled double stranded DNA oligomer (IDT Custom synthesis; 5′-5IABkFQ (SEQ ID NO. 1)/GCACTGGCCGTCGTTTTACGGTCGTGACT-3′ (SEQ ID NO. 2): 5′-TTTTTTACTTAACGACGGCCAGTGC (SEQ ID NO. 3)/36-TAMTSP/-3′ (SEQ ID NO. 4)). To start the reaction, 5 μL of assay buffer was added to a single column to serve as the low control. Following this, 5 μL of 2×WRN Enzyme was added in all wells except the buffer low control wells. The reaction plate was covered and incubated at ambient temperature for 4 hours to allow for time dependent inhibition if it existed. After 4 hours, the addition of 5 μL of 2×-ATP/DNA substrate cocktail was added across all wells of the assay plate. This initiated the reaction, as the plate was incubated at ambient temperature for 60 minutes for the unwinding reaction to occur. A 10 mM EDTA solution was prepared and added at 5 μL across the entire plate after 60 minutes to quench the samples for an endpoint measurement. Fluorescent intensity was measured using excitation and emission wavelengths of 525 nm and 598 nm, respectively. High florescent intensity (DMSO with buffer) represents full inhibition of unwinding activity and low florescent intensity (DMSO with enzyme) represents no inhibition of unwinding activity. The potency of the compounds was determined using a four-parameter inhibition model to generate pIC50, Hill Slope, maximum inhibition (see Table 2).

T1 sequence (Q14191 whole entry): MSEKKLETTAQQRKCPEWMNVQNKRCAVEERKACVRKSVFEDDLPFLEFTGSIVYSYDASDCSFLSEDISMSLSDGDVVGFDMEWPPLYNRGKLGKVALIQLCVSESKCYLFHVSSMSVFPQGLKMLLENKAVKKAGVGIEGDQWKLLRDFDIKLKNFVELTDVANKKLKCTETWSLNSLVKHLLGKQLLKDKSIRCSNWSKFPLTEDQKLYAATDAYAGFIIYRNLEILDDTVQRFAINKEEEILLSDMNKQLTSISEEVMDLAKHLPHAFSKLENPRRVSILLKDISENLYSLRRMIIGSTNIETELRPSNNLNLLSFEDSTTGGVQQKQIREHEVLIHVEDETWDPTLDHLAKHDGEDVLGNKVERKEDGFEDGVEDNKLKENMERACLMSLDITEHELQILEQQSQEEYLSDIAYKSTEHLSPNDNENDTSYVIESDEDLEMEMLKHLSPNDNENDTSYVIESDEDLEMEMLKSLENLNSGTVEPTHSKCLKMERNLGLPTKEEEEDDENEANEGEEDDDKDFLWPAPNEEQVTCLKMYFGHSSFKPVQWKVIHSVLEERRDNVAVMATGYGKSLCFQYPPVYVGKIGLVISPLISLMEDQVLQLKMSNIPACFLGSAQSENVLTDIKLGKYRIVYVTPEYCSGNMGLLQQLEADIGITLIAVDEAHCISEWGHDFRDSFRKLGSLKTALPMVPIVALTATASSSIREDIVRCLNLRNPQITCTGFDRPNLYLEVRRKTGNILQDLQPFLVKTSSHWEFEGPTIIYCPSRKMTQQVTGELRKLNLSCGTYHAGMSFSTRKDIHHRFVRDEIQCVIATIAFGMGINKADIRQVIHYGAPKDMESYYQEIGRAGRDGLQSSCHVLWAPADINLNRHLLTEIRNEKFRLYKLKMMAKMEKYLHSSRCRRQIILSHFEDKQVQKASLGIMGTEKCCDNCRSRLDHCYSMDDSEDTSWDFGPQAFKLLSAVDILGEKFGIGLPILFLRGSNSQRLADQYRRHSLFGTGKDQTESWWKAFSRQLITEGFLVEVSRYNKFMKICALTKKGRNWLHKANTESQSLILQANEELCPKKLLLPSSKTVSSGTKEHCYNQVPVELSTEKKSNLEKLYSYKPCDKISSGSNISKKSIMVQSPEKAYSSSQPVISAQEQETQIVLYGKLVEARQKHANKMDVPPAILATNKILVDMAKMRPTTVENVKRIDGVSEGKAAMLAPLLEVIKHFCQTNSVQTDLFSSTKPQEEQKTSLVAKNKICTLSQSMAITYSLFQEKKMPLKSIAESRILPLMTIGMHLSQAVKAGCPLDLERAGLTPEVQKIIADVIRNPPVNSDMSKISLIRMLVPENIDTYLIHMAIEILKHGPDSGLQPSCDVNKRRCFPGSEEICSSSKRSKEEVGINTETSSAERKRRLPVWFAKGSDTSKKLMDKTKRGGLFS

Q: `Cc1nc2cc(S(=O)(=O)N(C)c3ccc([C@@H]4C[C@H](N)C[C@H](C(=O)Nc5ccc(C(F)(F)F)cc5F)[C@H]4C(=O)O)cc3)ccc2n1C` (stereo in doubt) [Example 302, rel-(1R,2R,4R,6S)-4-amino-2-((2-fluoro-4-(trifluoromethyl)phenyl)carbamoyl)-6-(4-((N,1,2-trimethyl-1H-benzo[d]imidazole)-5-sulfonamido)phenyl)cyclohexane-1-carboxylic acid] was tested. Which IC50 did it give?
A: 0.126 µM

Q: How did the IC50 turn out when `O=C(O)[C@@H]1[C@@H](c2ccc(CC3CCNCC3)cc2)CCC[C@H]1C(=O)Nc1ccc(C(F)(F)F)cc1F` [Example 71, (1R,2R,6S)-2-((2-fluoro-4-(trifluoromethyl)phenyl)carbamoyl)-6-(4-(piperidin-4-ylmethyl)phenyl)cyclohexane-1-carboxylic acid] was run?
A: 100 µM

Q: For `O=C(O)[C@@H]1[C@@H](c2ccc(C3CC3)cc2)CCC[C@H]1C(=O)Nc1ccc(C(F)(F)F)cc1F` [Example 69, (1R,2S,6R)-2-(4-cyclopropylphenyl)-6-((2-fluoro-4-(trifluoromethyl)phenyl)carbamoyl)cyclohexane-1-carboxylic acid], which IC50 is on record?
A: 6.31 µM

Q: For `Cc1nc2cc(S(=O)(=O)N(C)c3ccc([C@H]4C[C@@H](O)C[C@@H](C(=O)Nc5ccc(C(F)(F)F)cc5F)[C@H]4C(=O)O)cc3)ccc2n1C` (single isomer, unassigned) [Example 143], which IC50 is on record?
A: 0.0158 µM

Q: For `CN[C@@H]1C[C@H](C(=O)Nc2ccc(C(F)(F)F)cc2F)[C@@H](C(=O)O)[C@H](c2ccc(N(C)S(=O)(=O)c3ccc4c(c3)nc(C)n4C)cc2)C1` (single isomer, unassigned) [Example 257], which IC50 is on record?
A: 0.251 µM

Q: With `O=C(O)[C@@H]1[C@@H](c2ccc(-c3cccnn3)cc2)CCC[C@H]1C(=O)Nc1ccc(C(F)(F)F)cc1F` [Example 38, (1R,2R,6S)-2-((2-fluoro-4-(trifluoromethyl)phenyl)carbamoyl)-6-(4-(pyridazin-3-yl)phenyl)cyclohexane-1-carboxylic acid] as the compound, how does the IC50 read?
A: 0.00158 µM

Q: For `CC(=O)N1C[C@H](C(=O)Nc2ccc(C(F)(F)F)cc2F)[C@@H](C(=O)O)[C@H](c2ccc(N(C)S(=O)(=O)c3ccc4c(c3)nc(C)n4C)cc2)C1` (stereo in doubt) [Example 309, rel-(3R,4S,5R)-1-acetyl-3-((2-fluoro-4-(trifluoromethyl)phenyl)carbamoyl)-5-(4-((N,1,2-trimethyl-1H-benzo[d]imidazole)-5-sulfonamido)phenyl)piperidine-4-carboxylic acid], which IC50 is on record?
A: 0.2 µM

Q: How did the IC50 turn out when `Cc1sccc1-c1ccc([C@H]2CCC[C@@H](C(=O)Nc3ccc(C(F)(F)F)cc3F)[C@@H]2C(=O)O)cc1` [Example 46, (1R,2R,6S)-2-((2-fluoro-4-(trifluoromethyl)phenyl)carbamoyl)-6-(4-(2-methylthiophen-3-yl)phenyl)cyclohexane-1-carboxylic acid] was run?
A: 0.0316 µM

Q: With `N#Cc1ccncc1-c1ccc(C2CCCC(C(=O)Nc3ccc(C(F)(F)F)cc3F)[C@@H]2C(=O)O)cc1` (stereo in doubt) [Example 49, (1R,2R,6S)-2-(4-(4-cyanopyridin-3-yl)phenyl)-6-((2-fluoro-4-(trifluoromethyl)phenyl)carbamoyl)cyclohe xane-1-carboxylic acid] as the compound, how does the IC50 read?
A: 1 µM

Q: `O=C(O)[C@@H]1[C@@H](c2ccc(C3=CCOC3)cc2)CCC[C@H]1C(=O)Nc1ccc(C(F)(F)F)cc1F` [Example 57, (1R,2S,6R)-2-(4-(2,5-dihydrofuran-3-yl)phenyl)-6-((2-fluoro-4-(trifluoromethyl)phenyl)carbamoyl) cyclohexane-1-carboxylic acid] was tested. Which IC50 did it give?
A: 0.1 µM

Q: How did the IC50 turn out when `O=C(O)[C@@H]1[C@@H](c2ccc(-c3ccc4nnnn4n3)cc2)CCC[C@H]1C(=O)Nc1ccc(C(F)(F)F)cc1F` [Example 29, (1R,2R,6S)-2-((2-fluoro-4-(trifluoromethyl)phenyl)carbamoyl)-6-(4-(tetrazolo[1,5-b]pyridazin-6-yl)phenyl) cyclohexane-1-carboxylic acid] was run?
A: 3.98 µM

Q: How did the IC50 turn out when `Cc1nc2cc(S(=O)(=O)Nc3ccc([C@H]4CCC[C@@H](C(=O)Nc5ccc(C(F)(F)F)cc5F)[C@@H]4C(=O)O)cc3)ccc2[nH]1` (relative stereo) [Example 258, rel-(1R,2R,6S)-2-((2-fluoro-4-(trifluoromethyl)phenyl)carbamoyl)-6-(4-((2-methyl-1H-benzo[d]imidazole)-5-sulfonamido)phenyl)cyclohexane-1-carboxylic acid] was run?
A: 0.631 µM

Q: Which IC50 does the source give for `Cc1nc2cc(S(=O)(=O)N(C)c3ccc([C@@H]4CCC[C@H](C(=O)Nc5ccc(C(F)(F)F)cc5F)[C@H]4C(=O)O)cc3C#N)ccc2n1C` (relative stereo) [Example 163, rel-(1R,2S,6R)-2-(3-cyano-4-((N,1,2-trimethyl-1H-benzo[d]imidazole)-5-sulfonamido)phenyl)-6-((2-fluoro-4-(trifluoromethyl)phenyl)carbamoyl)cyclohexane-1-carboxyl c acid] here?
A: 0.02 µM

Q: `COC(=O)[C@H]1C[C@H]1c1ccc([C@H]2CCC[C@@H](C(=O)Nc3ccc(C(F)(F)F)cc3F)[C@@H]2C(=O)O)cc1` (racemic) [Example 67, 1:1 Mixture of (1R,2R,6S)-2-((2-fluoro-4-(trifluoromethyl)phenyl)carbamoyl)-6-(4-((1R,2S)-2-(methoxycarbonyl)cyclopropyl)phenyl)cyclohexane-1-carboxylic acid AND (1R,2R,6S)-2-((2-fluoro-4-(trifluoromethyl)phenyl)carbamoyl)-6-(4-((1S,2S)-2-(methoxycarbonyl)cyclopropyl)phenyl)cyclohexane-1-carboxylic acid] was tested. Which IC50 did it give?
A: 2 µM

Q: `Cc1cscc1-c1ccc([C@H]2CCC[C@@H](C(=O)Nc3ccc(C(F)(F)F)cc3F)[C@@H]2C(=O)O)cc1` [Example 43, (1R,2R,6S)-2-((2-fluoro-4-(trifluoromethyl)phenyl)carbamoyl)-6-(4-(4-methylthiophen-3-yl)phenyl)cyclohexane-1-carboxylic acid] was tested. Which IC50 did it give?
A: 0.01 µM

Q: For `Cc1nc2cc(S(=O)(=O)N(C)c3ccc([C@@H]4C[C@@H](NCC(F)(F)F)C[C@H](C(=O)Nc5ccc(C(F)(F)F)cc5F)[C@H]4C(=O)O)cc3)ccc2n1C` (stereo in doubt) [Example 335, rel-(1R,2R,4S,6S)-2-((2-fluoro-4-(trifluoromethyl)phenyl)carbamoyl)-4-((2,2,2-trifluoroethyl)amino)-6-(4-((N,1,2-trimethyl-1H-benzo[d]imidazole)-5-sulfonamido)phenyl)cyclohexane-1-carboxylic acid], which IC50 is on record?
A: 2.51 µM

Q: With `CC(=O)N[C@H]1C[C@H](COc2ccc(C(F)(F)F)cc2)[C@@H](C(=O)O)[C@H](c2ccc(N(C)S(=O)(=O)c3ccc4c(c3)nc(C)n4C)cc2)C1` (single isomer, unassigned) [Example 297] as the compound, how does the IC50 read?
A: 2.51 µM

Q: How did the IC50 turn out when `O=C(O)[C@@H]1[C@@H](c2ccc(C(F)(F)F)cc2CO)CCC[C@H]1C(=O)Nc1ccc(C(F)(F)F)cc1F` (racemic) [Example 246, rac-(1R,2R,6S)-2-((2-fluoro-4-(trifluoromethyl)phenyl)carbamoyl)-6-(2-(hydroxymethyl)-4-(trifluoromethyl)phenyl)cyclohexane-1-carboxylic acid] was run?
A: 0.126 µM

Q: For `Cc1nc2cc(S(=O)(=O)N(C)c3ccc([C@H]4CCC[C@@H](COc5ccc(C(F)(F)F)cc5)[C@@H]4C(=O)O)cc3)cc([C@@H]3CCCNC3)c2n1C` (single isomer, unassigned) [Example 209, hydrochloride], which IC50 is on record?
A: 2 µM

Q: How did the IC50 turn out when `Cc1nc2cc(S(=O)(=O)N(C)c3ccc([C@H]4CCC[C@@H](CN5CC6(C5)CC(F)(F)C6)[C@@H]4C(=O)O)cc3)ccc2n1C` (racemic) [Example 201, rac-(1R,2R,6S)-2-((6,6-difluoro-2-azaspiro[3.3]heptan-2-yl)methyl)-6-(4-((N,1,2-trimethyl-1H-benzo[d]imidazole)-5-sulfonamido)phenyl)cyclohexane-1-carboxylic acid] was run?
A: 25.1 µM

Q: Which IC50 does the source give for `O=C(O)[C@@H]1[C@@H](c2ccc(-c3ccncc3)cc2)CCC[C@H]1C(=O)Nc1ccc(C(F)(F)F)cc1F` [Example 7, (1R,2R,6S)-2-((2-fluoro-4-(trifluoromethyl)phenyl)carbamoyl)-6-(4-(pyridin-4-yl)phenyl)cyclohexane-1-carboxylic acid] here?
A: 0.1 µM

Q: For `Cc1nc2cc(S(=O)(=O)N(C)c3ccc([C@@H]4C[C@H](N5CCC(F)(F)C5)C[C@H](C(=O)Nc5ccc(C(F)(F)F)cc5F)[C@H]4C(=O)O)cc3)ccc2n1C` [Example 305, (1S,2S,4S,6R)-4-(3,3-difluoropyrrolidin-1-yl)-2-((2-fluoro-4-(trifluoromethyl)phenyl)carbamoyl)-6-(4-((N,1,2-trimethyl-1H-benzo[d]imidazole)-5-sulfonamido)phenyl)cyclohexane-1-carboxylic acid], which IC50 is on record?
A: 0.316 µM
